Among the targets are Aspartyl aminopeptidase (Plasmodium falciparum 3D7, UniProt Q8I2J3); Procathepsin L (Homo sapiens, UniProt P07711); Cytochrome P450 2D6 (Homo sapiens, UniProt P10635).
The next assay addresses Genome polyprotein (Hepatitis C virus, UniProt Q2Q167). In words: disruption of hepatitis C core self-association – biochemical, TR-FRET, dose response (AID 2159).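 Note: blocks dimerization of HCV core protein measured by TR-FRET between tagged core106 pairs.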 Details: species or system Hepacivirus hominis. For orientation: In TR-FRET formats the signal depends on donor and acceptor labels being close together.
Assay [1] has as its target Photoreceptor-specific nuclear receptor (Homo sapiens, UniProt Q9Y5X4). It counts as functional.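 Note: potency for compounds that break the NR2E3 corepressor complex and count as activators.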
Assay [2] addresses Peroxisome proliferator-activated receptor gamma/Nuclear receptor coactivator 1 (Homo sapiens, UniProt P37231). Kind of assay: TR-FRET dose response biochemical High Throughput Screening assay for agonists of the steroid receptor coactivator 1 (SRC-1) recruitment by the peroxisome proliferator-activated receptor gamma (PPAR gamma): non-selective agonists. [Related pubchem assays (depositor defined):AID1300, AID1808, AID504735, AID631]. It is filed as protein assay.

For assay [3], the target named is Peroxisome proliferator-activated receptor gamma/Nuclear receptor coactivator 3 (Homo sapiens, UniProt P37231). In words: TR-FRET dose response biochemical High Throughput Screening assay for agonists of the steroid receptor coactivator 3 (SRC-3) recruitment by the peroxisome proliferator-activated receptor gamma (PPAR gamma): non-selective agonists. [Related pubchem assays: 1301 (Confirmation screen.), 1048 (Primary screen.)]. It counts as functional.

Assay [4] addresses Peroxisome proliferator-activated receptor gamma/Nuclear receptor coactivator 2 (Homo sapiens, UniProt P37231). Kind of assay: TR-FRET dose response biochemical High Throughput Screening assay for agonists of the steroid receptor coactivator 2 (SRC-2) recruitment by the peroxisome proliferator-activated receptor gamma (PPAR gamma): non-selective agonists. [Related pubchem assays: 1297, 1032 ]. It counts as functional.

For assay [5], the target named is Peroxisome proliferator-activated receptor gamma/Nuclear receptor corepressor 2 (Homo sapiens, UniProt P37231+Q9Y618). It counts as functional.
For the next assay, the target named is Major prion protein (Homo sapiens, UniProt P04156). It is filed as functional, cell-based.
The target in assay [6] is Luciferin 4-monooxygenase (Photinus pyralis, UniProt P08659). Kind of assay: Counter Screen for Luciferase-based Assay Positives. [Related pubchem assays: 620, 618, 411 ]. (In general: A counterscreen serves to expose hits that act by an unwanted route or on another target.)
For a further assay, the system named is HT-1080. In words: HT1080 cell viability loss – fluorescence readout (AID 620). It counts as functional, cell-based. Particulars: Homo sapiens.
Assay [7] deals with Ras and Rab interactor 1/Tyrosine-protein kinase ABL1 (Homo sapiens, UniProt P00519+Q13671). It is filed as functional.
Assay [8] deals with Acyl-homoserine lactone acylase PvdQ (Pseudomonas aeruginosa (strain LESB58), UniProt Q9I194). Kind of assay: PvdQ acylase enzyme activity blockers – biochemical, fluorescence, plate reader and imaging, cherry-picks, dose response (AID 493231).
In assay [9] the target is T1, Heat shock factor protein 1 (Mus musculus, UniProt P38532).
T1 sequence (P38532 whole entry): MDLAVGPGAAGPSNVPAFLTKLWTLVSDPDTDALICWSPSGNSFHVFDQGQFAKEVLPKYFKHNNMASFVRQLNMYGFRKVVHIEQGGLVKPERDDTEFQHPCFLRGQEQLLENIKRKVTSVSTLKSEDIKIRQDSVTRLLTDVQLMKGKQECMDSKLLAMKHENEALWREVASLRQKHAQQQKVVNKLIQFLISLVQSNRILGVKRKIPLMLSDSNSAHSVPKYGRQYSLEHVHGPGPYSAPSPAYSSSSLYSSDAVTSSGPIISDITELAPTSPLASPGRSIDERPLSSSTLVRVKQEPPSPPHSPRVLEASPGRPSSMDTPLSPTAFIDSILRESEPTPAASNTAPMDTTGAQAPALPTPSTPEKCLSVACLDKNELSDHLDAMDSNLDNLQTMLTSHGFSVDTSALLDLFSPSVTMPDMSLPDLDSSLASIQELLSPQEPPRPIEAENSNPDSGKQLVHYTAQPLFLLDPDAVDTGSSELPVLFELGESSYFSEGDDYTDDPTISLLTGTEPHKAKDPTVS
In words: enhancement of HSF1-driven luciferase signal – cell-based, NIH3T3, luminescence, dose retest, confirmation (AID 435004).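 Note: stress induced by proteasome inhibitor MG132 added 30 min after compound; luciferase reporter driven by HSF1 response element in NIH3T3 cells; actives raise luminescence as potentiators of the MG132 stress response.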 It counts as functional.

The nature of assay [10]: NIH-3T3 fibroblast cytotoxicity, dose response, cytotoxicity control, cell-based, fluorescence, Alamar Blue, secondary assay (AID 2327).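 Note: NIH-3T3 mouse fibroblasts cultured with fluconazole at 8 µg/mL.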 It is filed as functional.
For the next assay, the system named is HEK293. In words: Fluorescence-based counterscreen for potentiators or agonists of NPY-Y2: cell-based high-throughput dose response assay to identify inhibitors of cyclic nucleotide gated ion channel (CNGC) activity. In this assay, the parental HEK293 cell line transfected with a cyclic-nucleotide gated ion channel (CNGC)-based cAMP sensor is used to measure inhibition of isoproterenol-induced CNGC activity by test compound. It counts as functional. Particulars: Homo sapiens.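 Note: stimulus is 1 µM isoproterenol at EC100 plus PDE inhibitor Ro 20-1724 at 25 µM.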

The target in assay [11] is T2, Neuropeptide Y receptor type 2 (Homo sapiens, UniProt P49146).
T2 sequence (P49146 whole entry): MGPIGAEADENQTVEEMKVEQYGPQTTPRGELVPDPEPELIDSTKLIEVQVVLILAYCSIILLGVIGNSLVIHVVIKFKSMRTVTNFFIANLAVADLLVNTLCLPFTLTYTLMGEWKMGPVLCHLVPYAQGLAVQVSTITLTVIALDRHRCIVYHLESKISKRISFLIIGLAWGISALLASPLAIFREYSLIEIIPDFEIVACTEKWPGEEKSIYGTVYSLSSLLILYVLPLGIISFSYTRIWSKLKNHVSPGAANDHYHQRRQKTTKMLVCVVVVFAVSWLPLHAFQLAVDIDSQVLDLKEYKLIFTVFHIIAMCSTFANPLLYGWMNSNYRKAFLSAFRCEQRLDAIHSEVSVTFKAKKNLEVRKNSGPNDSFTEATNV
Kind of assay: Fluorescence-based cell-based high-throughput dose response assay for agonists of NPY-Y2. [Related pubchem assays: 1703 (Screening assay (CNGC inhibitors).), 1359 (Screening assay (NPY-Y2 potentiators or agonists).), 1304 (Screening assay (NPY-Y1 potentiators or agonists).), 1710 (Screening assay (NPY-Y2 agonists).), 1791 (Summary AID.)]. It is filed as functional.

Assay [12] is described as follows: fluconazole-exposed Candida albicans growth modulators – fluorescence, retest, confirmation (AID 2467). It is filed as functional, cell-based.
The target in assay [13] is T3, Neuropeptide Y receptor type 1 (Homo sapiens, UniProt P25929).
T3 sequence (P25929 whole entry): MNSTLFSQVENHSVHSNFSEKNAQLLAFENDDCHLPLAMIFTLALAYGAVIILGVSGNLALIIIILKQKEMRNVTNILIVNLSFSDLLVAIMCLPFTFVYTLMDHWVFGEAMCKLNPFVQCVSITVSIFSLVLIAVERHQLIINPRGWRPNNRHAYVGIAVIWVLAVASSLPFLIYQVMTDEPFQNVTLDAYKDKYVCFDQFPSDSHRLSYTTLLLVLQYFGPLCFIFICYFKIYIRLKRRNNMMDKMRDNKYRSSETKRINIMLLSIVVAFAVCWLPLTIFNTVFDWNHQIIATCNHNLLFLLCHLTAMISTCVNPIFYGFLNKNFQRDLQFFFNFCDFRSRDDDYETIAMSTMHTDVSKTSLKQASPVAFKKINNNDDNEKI
Kind of assay: Fluorescence-based counterscreen for agonists of NPY-Y2: cell-based high-throughput dose response assay for agonists of NPY-Y1. It counts as functional.

Assay [14] has as its target T4, Calpain-2 catalytic subunit (Sus scrofa, UniProt P43367).
T4 sequence (P43367 whole entry): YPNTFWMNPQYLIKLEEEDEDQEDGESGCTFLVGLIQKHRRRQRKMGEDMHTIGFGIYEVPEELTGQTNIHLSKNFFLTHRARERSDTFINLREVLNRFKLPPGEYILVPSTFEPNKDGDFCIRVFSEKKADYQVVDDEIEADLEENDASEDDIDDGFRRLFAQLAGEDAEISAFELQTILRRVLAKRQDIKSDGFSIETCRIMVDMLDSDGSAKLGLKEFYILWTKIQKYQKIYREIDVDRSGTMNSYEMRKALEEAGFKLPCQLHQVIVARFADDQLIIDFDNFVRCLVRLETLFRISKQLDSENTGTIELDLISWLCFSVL
In words: m-calpain protease blockers, concentration series – biochemical, fluorogenic peptide substrate, dose response (AID 1420). It counts as functional.

Assay [15] concerns the target T5, Alkaline phosphatase, tissue-nonspecific isozyme (Homo sapiens, UniProt P05186).
T5 sequence (P05186 whole entry): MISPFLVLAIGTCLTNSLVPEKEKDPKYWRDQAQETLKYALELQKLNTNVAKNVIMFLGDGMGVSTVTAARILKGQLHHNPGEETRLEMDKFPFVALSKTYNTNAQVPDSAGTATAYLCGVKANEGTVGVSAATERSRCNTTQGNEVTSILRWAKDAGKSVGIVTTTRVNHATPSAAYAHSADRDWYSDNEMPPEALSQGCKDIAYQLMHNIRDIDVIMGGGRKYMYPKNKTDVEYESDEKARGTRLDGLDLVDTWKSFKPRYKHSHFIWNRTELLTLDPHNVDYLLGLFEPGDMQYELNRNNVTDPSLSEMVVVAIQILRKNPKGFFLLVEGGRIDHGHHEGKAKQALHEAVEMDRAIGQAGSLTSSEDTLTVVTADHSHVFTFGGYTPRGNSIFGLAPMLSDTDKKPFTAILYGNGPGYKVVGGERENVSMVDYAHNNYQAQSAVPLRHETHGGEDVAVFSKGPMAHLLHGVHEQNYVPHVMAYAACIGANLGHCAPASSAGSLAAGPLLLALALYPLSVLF

The nature of assay [16]: M. tuberculosis H37Rv growth inhibitors, H37Rv strain (AID 1626). It is filed as functional.
Assay [17] deals with Streptococcus sp. 'group A'. In words: Streptococcus pyogenes SK(-)GAS viability under kanamycin – luminescence, BacTiterGlo, confirmation, counter-screen for streptokinase expression inhibitor project, dose response (AID 1900). It is filed as functional, organism-based.
In another assay the target is T6, Streptokinase A (Streptococcus pyogenes serotype M1, UniProt P10520).
T6 sequence (P10520 whole entry): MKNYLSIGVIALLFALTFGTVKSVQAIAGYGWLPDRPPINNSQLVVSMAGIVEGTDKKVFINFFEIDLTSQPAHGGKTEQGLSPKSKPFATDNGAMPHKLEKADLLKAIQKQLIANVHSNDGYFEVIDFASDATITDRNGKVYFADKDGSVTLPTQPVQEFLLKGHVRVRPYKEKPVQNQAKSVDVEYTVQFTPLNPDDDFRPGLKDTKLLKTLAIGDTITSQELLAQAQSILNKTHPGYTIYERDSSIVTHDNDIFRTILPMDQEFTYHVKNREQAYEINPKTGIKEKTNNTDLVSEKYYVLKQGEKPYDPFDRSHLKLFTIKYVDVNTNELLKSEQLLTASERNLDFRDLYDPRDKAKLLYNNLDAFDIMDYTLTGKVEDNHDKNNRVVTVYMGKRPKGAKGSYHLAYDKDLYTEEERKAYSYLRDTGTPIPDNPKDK
In words: viability-normalized secreted streptokinase activity reduction – plasminogen activation absorbance, OD405, dose response (AID 1914).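 Note: secreted streptokinase activity via plasminogen activation per viability signal from cell pellet.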 It counts as functional, Streptococcus pyogenes M1 GAS.

The subject of another assay is Streptococcus. Kind of assay: GAS UMAA2166 growth inhibition – luminescence, BacTiterGlo, counter-screen for streptokinase expression inhibitor project, dose response (AID 1915).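 Note: potency for reduction of bacterial viability or growth.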 It counts as functional, organism-based.
Assay [18] deals with T7, Ubiquitin-conjugating enzyme E2 N (Homo sapiens, UniProt P61088).
T7 sequence (P61088 whole entry): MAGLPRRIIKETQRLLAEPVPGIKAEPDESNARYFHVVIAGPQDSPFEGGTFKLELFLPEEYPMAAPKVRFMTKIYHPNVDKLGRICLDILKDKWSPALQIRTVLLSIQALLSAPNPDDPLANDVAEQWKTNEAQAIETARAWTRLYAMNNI
It is filed as functional.

What is called IC50 is the concentration at which inhibition is half-maximal. A word on the EC50: it is the midpoint of the concentration-response curve. Usually AC50 stands for the concentration giving half of the maximal activity seen.

Activity calls are given as the source filed them.

Photoreceptor-specific nuclear receptor, sequence (Q9Y5X4 whole entry): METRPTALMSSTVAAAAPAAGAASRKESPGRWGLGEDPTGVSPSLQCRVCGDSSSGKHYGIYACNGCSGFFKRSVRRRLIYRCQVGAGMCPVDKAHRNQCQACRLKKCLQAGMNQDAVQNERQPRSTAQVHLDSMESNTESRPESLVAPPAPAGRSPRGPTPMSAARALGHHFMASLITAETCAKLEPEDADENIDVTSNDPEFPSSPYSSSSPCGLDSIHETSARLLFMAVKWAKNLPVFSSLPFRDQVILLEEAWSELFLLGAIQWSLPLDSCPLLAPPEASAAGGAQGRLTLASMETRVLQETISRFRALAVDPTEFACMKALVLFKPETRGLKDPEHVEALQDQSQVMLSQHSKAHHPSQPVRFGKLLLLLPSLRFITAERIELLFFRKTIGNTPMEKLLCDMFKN
Aspartyl aminopeptidase, sequence (Q8I2J3 whole entry): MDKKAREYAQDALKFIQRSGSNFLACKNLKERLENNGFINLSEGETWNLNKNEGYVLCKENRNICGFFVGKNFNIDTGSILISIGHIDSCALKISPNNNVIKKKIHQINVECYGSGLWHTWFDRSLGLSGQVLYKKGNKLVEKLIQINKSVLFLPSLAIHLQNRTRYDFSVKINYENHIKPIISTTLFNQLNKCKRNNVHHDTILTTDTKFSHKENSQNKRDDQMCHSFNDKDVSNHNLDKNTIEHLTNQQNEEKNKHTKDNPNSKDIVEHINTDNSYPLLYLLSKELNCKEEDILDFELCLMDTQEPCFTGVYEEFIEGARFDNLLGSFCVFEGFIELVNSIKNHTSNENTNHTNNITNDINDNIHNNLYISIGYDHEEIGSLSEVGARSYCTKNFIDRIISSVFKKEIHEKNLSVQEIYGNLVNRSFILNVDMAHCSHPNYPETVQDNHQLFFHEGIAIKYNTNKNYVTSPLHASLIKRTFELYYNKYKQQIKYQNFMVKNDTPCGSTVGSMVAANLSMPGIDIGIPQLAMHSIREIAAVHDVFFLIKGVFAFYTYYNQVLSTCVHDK
Peroxisome proliferator-activated receptor gamma/Nuclear receptor corepressor 2, sequence (P37231 whole entry): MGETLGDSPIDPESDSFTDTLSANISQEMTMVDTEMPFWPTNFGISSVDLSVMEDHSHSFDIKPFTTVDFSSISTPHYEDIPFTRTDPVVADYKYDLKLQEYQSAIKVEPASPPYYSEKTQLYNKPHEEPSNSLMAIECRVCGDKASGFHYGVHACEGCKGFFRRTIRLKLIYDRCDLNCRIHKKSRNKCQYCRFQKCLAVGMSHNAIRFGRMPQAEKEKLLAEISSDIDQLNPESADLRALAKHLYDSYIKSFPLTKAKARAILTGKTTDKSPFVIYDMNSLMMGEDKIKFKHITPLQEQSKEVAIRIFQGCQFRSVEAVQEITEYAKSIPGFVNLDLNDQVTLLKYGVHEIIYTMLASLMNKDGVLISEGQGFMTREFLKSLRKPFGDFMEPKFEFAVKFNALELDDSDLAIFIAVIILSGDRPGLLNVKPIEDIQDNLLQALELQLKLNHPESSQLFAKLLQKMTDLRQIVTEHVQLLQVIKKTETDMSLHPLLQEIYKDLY
Peroxisome proliferator-activated receptor gamma/Nuclear receptor corepressor 2, sequence (Q9Y618 whole entry): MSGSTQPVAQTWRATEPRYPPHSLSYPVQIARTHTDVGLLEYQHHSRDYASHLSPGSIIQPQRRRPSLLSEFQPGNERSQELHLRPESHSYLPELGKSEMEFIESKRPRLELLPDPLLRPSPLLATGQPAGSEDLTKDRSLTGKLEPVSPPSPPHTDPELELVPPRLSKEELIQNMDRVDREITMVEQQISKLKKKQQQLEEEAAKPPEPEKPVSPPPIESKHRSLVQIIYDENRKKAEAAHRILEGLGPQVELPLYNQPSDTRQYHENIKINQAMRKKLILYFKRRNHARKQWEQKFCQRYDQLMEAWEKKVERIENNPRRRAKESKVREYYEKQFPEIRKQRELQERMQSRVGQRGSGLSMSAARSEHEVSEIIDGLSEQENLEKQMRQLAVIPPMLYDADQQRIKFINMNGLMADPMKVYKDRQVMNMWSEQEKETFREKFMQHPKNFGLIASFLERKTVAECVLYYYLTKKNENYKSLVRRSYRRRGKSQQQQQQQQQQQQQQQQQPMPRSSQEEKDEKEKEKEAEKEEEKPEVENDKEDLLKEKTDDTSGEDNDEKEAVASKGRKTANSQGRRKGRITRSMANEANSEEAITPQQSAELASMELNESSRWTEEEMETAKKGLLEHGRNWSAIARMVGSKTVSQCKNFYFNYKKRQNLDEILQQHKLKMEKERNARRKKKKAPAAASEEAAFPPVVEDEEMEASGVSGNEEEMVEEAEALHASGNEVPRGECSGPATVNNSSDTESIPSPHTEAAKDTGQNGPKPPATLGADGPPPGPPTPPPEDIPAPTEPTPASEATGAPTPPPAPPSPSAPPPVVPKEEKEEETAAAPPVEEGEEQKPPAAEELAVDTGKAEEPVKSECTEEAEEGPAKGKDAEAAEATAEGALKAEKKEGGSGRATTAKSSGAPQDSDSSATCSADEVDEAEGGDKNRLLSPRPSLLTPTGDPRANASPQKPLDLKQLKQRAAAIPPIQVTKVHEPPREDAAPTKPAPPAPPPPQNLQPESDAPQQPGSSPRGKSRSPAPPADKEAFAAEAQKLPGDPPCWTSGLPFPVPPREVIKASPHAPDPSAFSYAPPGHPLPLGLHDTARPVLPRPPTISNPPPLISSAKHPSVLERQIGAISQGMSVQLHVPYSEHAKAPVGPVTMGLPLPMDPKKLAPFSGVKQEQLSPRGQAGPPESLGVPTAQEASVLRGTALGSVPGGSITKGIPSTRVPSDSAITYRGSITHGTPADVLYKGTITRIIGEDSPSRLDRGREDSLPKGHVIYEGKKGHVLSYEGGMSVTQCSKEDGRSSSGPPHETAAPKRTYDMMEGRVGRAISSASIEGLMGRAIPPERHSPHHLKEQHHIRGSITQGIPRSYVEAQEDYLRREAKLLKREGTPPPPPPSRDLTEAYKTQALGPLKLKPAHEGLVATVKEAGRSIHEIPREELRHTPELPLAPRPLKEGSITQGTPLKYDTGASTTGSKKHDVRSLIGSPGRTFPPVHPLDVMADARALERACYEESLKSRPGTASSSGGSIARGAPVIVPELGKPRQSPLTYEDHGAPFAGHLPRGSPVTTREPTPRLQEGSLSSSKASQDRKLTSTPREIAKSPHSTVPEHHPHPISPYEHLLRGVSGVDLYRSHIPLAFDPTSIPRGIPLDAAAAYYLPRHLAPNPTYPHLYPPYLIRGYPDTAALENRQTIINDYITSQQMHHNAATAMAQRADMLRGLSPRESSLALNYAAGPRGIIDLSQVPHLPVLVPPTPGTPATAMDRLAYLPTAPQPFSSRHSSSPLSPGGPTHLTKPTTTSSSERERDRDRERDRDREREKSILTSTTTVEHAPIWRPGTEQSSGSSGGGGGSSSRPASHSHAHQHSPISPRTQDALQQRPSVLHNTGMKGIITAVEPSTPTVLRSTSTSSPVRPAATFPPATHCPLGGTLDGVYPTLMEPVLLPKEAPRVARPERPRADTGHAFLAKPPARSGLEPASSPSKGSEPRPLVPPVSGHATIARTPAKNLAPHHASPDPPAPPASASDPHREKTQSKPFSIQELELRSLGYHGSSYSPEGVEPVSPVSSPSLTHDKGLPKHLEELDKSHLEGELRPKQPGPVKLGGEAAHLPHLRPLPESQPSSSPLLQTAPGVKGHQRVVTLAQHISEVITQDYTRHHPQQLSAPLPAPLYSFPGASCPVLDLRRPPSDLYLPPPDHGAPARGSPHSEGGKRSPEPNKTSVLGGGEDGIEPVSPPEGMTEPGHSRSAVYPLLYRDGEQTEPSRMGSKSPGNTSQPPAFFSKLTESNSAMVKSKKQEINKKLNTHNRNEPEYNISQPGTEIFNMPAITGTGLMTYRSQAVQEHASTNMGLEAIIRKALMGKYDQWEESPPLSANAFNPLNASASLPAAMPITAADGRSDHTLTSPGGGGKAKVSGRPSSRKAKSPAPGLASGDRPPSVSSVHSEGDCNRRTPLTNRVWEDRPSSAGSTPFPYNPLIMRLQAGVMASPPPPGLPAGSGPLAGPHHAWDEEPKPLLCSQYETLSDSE
Procathepsin L, sequence (P07711 whole entry): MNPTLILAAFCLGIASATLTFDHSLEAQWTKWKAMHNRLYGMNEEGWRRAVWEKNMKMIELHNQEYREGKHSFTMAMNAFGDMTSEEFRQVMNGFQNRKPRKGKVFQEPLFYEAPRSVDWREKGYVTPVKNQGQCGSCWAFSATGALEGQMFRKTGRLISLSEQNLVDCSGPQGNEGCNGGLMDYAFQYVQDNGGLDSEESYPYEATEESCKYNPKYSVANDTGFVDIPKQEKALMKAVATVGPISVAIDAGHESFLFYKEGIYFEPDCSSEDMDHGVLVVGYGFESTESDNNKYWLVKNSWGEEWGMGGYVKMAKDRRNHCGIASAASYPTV
Luciferin 4-monooxygenase, sequence (P08659 whole entry): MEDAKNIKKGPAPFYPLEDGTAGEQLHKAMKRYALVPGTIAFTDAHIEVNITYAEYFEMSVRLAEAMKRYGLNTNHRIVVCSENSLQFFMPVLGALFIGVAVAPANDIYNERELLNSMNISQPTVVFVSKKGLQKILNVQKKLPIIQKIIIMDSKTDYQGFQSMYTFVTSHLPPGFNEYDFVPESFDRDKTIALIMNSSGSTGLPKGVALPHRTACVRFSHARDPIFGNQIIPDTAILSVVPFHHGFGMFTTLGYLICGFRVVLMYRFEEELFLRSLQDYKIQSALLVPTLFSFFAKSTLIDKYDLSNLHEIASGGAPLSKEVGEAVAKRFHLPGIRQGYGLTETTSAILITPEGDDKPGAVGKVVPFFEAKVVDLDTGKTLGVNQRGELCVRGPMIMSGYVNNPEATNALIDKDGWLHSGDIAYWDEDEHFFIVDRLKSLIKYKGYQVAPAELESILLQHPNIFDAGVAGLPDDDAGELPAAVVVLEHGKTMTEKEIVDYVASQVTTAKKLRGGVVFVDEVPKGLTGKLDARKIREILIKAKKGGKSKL
Genome polyprotein, sequence (Q2Q167 whole entry): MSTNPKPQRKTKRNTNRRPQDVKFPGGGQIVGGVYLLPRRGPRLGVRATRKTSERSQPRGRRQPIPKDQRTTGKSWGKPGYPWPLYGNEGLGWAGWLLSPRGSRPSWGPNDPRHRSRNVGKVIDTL

Regarding `Cc1cc(Br)c2nc3c(c(C(=O)O)c2c1)CCCCC3`, the IC50 against Genome polyprotein was > 49.8 µM (not active); in assay [1], 1.38 µM (active); in assay [5] it was 0.604 µM (active); on Major prion protein, 0.141 µM (active); in “cells” it was > 138 µM (inactive). The EC50 is > 79.4 µM (inactive) in assay [2], > 79.4 µM (not active) in assay [3] and 12.8 µM (not active) in assay [4].

For `Clc1ccccc1OCc1nc(-c2ccccn2)no1`, the EC50 is given as > 100 µM (not active) in assay [6] and > 50 µM (not active) in the assay with HT-1080.

As for `Cc1cccc(C)c1NC(=O)CCCCCC1NC(=O)NC1C` (centres undefined), the results for the IC50 in assay [1], in assay [5] and in [7] were 3.85 µM (active), > 39.8 µM (not active) and 0.106 µM (active), respectively.

For `Cc1cccc(C(C#N)c2ccc(Cl)nn2)c1` (centres undefined), the half-maximal activity concentration (AC50) in assay [8] was 2.01 µM (active). In addition, the EC50 in assay [9] is > 260 µM (inactive).

As for `Nc1nncn1C(=O)CCCOc1ccc(Cl)cc1Cl`, the figures for the IC50 at Aspartyl aminopeptidase and against Procathepsin L were 2.6 µM (active) and > 59.6 µM (not active), respectively.

Turning to `CCN(CC)S(=O)(=O)c1ccc(C(=O)Nn2cnnc2)cc1`, the concentration for half-maximal inhibition (IC50) at Aspartyl aminopeptidase is 1.07 µM (active); on Procathepsin L it was > 59.6 µM (not active).

Take `O=C(COc1ccc(Cl)cc1)Nc1ncc([N+](=O)[O-])s1`: the concentration giving a half-maximal response (EC50) in assay [10] is 36 µM (active); in the assay with HEK293, > 35.4 µM (not active); in assay [11], > 35.4 µM (not active); in [12], 0.166 µM (active); in assay [13] it was 33.8 µM (not active); in [9], 0.382 µM (active). For the same molecule, the 50% inhibitory concentration (IC50) in assay [14] is on record as 24.9 µM (not active).

With `CC(=O)OCCCN1c2ccccc2Nc2nnc(-c3ccccc3)cc21`, the half-maximal effective concentration (EC50) in assay [15] was 71.8 µM (not active). The concentration for half-maximal inhibition (IC50) in [16] was > 100 µM (active). The concentration at half-maximal activity (AC50) on Cytochrome P450 2D6 was 15.8 µM (inconclusive).

Take `COc1ccc(Cl)cc1NC(=O)CN1CCC(n2nnc3cc(C)ccc32)CC1`: the EC50 was 12.2 µM (active) in [17], 70.6 µM (not active) in [15], 26.4 µM (active) on Streptokinase A and 93.4 µM (active) with Streptococcus. Moreover, the IC50 in [18] was > 20 µM (inactive).

(Values after ChEMBL document CHEMBL1201862, “PubChem BioAssay data set” (2004).)
